Molecular target: T1, full-length SgmT (His6-SgmT) (Myxococcus xanthus, UniProt Q1D3G7)
T1 sequence (Q1D3G7 1-836): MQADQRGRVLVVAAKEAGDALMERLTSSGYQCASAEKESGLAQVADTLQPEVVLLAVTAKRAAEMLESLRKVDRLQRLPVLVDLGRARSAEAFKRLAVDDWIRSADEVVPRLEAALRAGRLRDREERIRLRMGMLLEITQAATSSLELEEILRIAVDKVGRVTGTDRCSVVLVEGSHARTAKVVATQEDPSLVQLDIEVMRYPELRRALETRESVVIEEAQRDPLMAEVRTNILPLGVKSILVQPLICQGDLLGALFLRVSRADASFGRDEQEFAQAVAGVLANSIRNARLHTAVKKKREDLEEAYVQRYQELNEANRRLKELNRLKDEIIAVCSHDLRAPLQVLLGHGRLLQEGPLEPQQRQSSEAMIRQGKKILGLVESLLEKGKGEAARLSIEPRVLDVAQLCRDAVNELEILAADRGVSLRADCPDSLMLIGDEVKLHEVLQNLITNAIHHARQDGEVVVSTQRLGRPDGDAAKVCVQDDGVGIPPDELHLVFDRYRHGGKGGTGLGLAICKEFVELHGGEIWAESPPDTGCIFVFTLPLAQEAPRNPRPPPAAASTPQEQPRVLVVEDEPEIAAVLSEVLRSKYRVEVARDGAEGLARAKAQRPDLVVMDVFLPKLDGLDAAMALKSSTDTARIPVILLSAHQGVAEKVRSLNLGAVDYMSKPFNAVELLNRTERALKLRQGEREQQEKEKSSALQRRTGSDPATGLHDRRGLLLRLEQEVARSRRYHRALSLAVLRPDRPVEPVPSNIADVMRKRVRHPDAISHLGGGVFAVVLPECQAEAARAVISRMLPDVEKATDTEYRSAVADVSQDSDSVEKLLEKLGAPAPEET
Conditions: labelled compound; 1.0 mM ATP, 10 mM MgCl2, Tris pH 8.0, 30°C, 30 min

Nc1ncnc2c1ncn2[C@@H]1O[C@H](COP(=O)(O)OP(=O)(O)OP(=O)(O)O)[C@@H](O)[C@H]1O [[γ-^32P]-ATP]
autophosphorylation, SDS-PAGE and phosphorimaging: Autophosphorylation of full-length SgmT and phosphotransfer to DigR
